The target in this test is T1, human RORγ-LBD (Homo sapiens, UniProt P51449).
T1 construct: made in house; host or cells: E. coli (BL-21)
T1 sequence (P51449 262-518): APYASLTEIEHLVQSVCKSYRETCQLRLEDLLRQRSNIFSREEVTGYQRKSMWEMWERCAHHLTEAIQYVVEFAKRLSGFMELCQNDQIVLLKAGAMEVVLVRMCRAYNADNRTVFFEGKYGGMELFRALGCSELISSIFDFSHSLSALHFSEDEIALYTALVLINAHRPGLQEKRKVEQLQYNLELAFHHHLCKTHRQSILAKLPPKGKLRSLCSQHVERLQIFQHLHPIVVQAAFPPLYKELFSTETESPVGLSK
As to the kind of experiment: ROR gamma coactivator peptide recruitment Alphascreen assay (RORγ-LBD binding to GRIP1 coactivator peptide). To be noted: 5 nM human RORγ-LBD, 30 nM 7-β-hydroxycholesterol, 50 nM biotinylated GRIP1 coactivator peptide, overnight incubation at room temperature; read-out: result (pIC50, RORγ coactivator peptide recruitment Alphascreen assay) (converted). Type of test: biochemical. Put shortly: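 His/Flag-tagged human RORγ-LBD (aa 262-518, E. coli-expressed, 5 nM) with agonist 7-β-hydroxycholesterol (30 nM) and biotinylated GRIP1 LXXLL peptide (50 nM) in HEPES pH 7.4 buffer, 2.5% DMSO. Compound 1-in-2 dilutions; Alphascreen bead signal read after overnight incubation at room temperature; pIC50 calculated.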
Background: Alpha assays give light when donor and acceptor beads are brought close together.

Consider `Cc1cc(Cl)c(C(=O)CN(CC2CCC2)C(=O)c2cnn([C@H]3CC[C@](C)(C(=O)O)CC3)c2C(F)(F)F)c(Cl)c1` [Example 733, trans-4-(4-((cyclobutylmethyl)(2-(2,6-dichloro-4-methylphenyl)-2-oxoethyl)carbamoyl)-5-(trifluoromethyl)-1H-pyrazol-1-yl)-1-methylcyclohexanecarboxylic acid], for which the IC50 is 2.51 nM.

For the molecule `C[C@]1(C(=O)O)CC[C@H](n2ncc(C(=O)N(CC(=O)c3c(Cl)cncc3Cl)CC3CCC3)c2C(F)(F)F)CC1` [Example 734, trans-4-(4-((cyclobutylmethyl)(2-(3,5-dichloro-4-pyridinyl)-2-oxoethyl)carbamoyl)-5-(trifluoromethyl)-1H-pyrazol-1-yl)-1-methylcyclohexanecarboxylic acid], the IC50 is 10 nM.

Regarding `C[C@]1(C(=O)O)CC[C@H](n2ncc(C(=O)N(CC(=O)c3c(Cl)cncc3Cl)CC3CCCCC3)c2C(F)(F)F)CC1` [Example 735], the IC50 is 2.75 nM.

Turning to `C[C@H]1C[C@H](n2ncc(C(=O)N(CC(=O)c3c(Cl)cncc3Cl)CC(C)(C)C)c2C(F)(F)F)CC[C@H]1C(=O)O` [Example 738], the IC50 was 13.5 nM.

For the molecule `C[C@@H]1C[C@@H](n2ncc(C(=O)N(CC(=O)c3c(Cl)cncc3Cl)CC(C)(C)C)c2C(F)(F)F)CC[C@@H]1C(=O)O` [Example 739], the IC50 was 5.75 nM.

As to `Cc1cc(Cl)c(C(=O)CN(CC(C)(C)C)C(=O)c2cnn([C@H]3CC[C@H](CC(=O)O)CC3)c2C(F)(F)F)c(Cl)n1` [Example 740, (trans-4-(4-((2-(2,4-dichloro-6-methyl-3-pyridinyl)-2-oxoethyl)(2,2-dimethylpropyl)carbamoyl)-5-(trifluoromethyl)-1H-pyrazol-1-yl)cyclohexyl)acetic acid], the IC50 is 14.5 nM.

Consider `CCC1(CN(CC(=O)c2c(Cl)cncc2Cl)C(=O)c2cnn([C@H]3CC[C@](C)(C(=O)O)CC3)c2C(F)(F)F)CCC1` [Example 742, trans-4-(4-((2-(3,5-dichloro-4-pyridinyl)-2-oxoethyl)((1-ethylcyclobutyl)methyl)carbamoyl)-5-(trifluoromethyl)-1H-pyrazol-1-yl)-1-methylcyclohexanecarboxylic acid], for which the IC50 was 2.63 nM.

In the case of `CC1(C)C[C@H]1CN(CC(=O)c1c(Cl)cncc1Cl)C(=O)c1cnn([C@H]2CC[C@](C)(C(=O)O)CC2)c1C(F)(F)F` [Example 743, trans-4-(4-((2-(3,5-dichloro-4-pyridinyl)-2-oxoethyl)(((1S)-2,2-dimethylcyclopropyl)methyl)carbamoyl)-5-(trifluoromethyl)-1H-pyrazol-1-yl)-1-methylcyclohexanecarboxylic acid], the IC50 was 2.24 nM.

As for `CCC1(CN(CC(=O)c2c(Cl)cc(C)cc2Cl)C(=O)c2cnn([C@H]3CC[C@](C)(C(=O)O)CC3)c2C(F)(F)F)CCC1` [Example 744, trans-4-(4-((2-(2,6-dichloro-4-methylphenyl)-2-oxoethyl)((1-ethylcyclobutyl)methyl)carbamoyl)-5-(trifluoromethyl)-1H-pyrazol-1-yl)-1-methylcyclohexanecarboxylic acid], the IC50 is 0.589 nM.

Take `Cc1cc(Cl)c(C(=O)CN(C[C@@H]2CC2(C)C)C(=O)c2cnn([C@H]3CC[C@](C)(C(=O)O)CC3)c2C(F)(F)F)c(Cl)c1` [Example 745, trans-4-(4-((2-(2,6-dichloro-4-methylphenyl)-2-oxoethyl)(((1R)-2,2-dimethylcyclopropyl)methyl)carbamoyl)-5-(trifluoromethyl)-1H-pyrazol-1-yl)-1-methylcyclohexanecarboxylic acid]: the IC50 is 1 nM.

`CC(C)[C@@H]1C[C@H](Cc2c(Cl)cncc2Cl)N(C(=O)c2cnn([C@H]3CC[C@](C)(C(=O)O)CC3)c2C(F)(F)F)C1` [Example 746, trans-4-(4-(((2R,4S)-2-((3,5-dichloro-4-pyridinyl)methyl)-4-(2-propanyl)-1-pyrrolidinyl)carbonyl)-5-(trifluoromethyl)-1H-pyrazol-1-yl)-1-methylcyclohexanecarboxylic acid]: the IC50 was 32.4 nM.

Take `CC(C)[C@H]1C[C@H](Cc2c(Cl)cncc2Cl)N(C(=O)c2cnn([C@H]3CC[C@](C)(C(=O)O)CC3)c2C(F)(F)F)C1` [Example 747, trans-4-(4-(((2R,4R)-2-((3,5-dichloro-4-pyridinyl)methyl)-4-(2-propanyl)-1-pyrrolidinyl)carbonyl)-5-(trifluoromethyl)-1H-pyrazol-1-yl)-1-methylcyclohexanecarboxylic acid]: the IC50 was 3.98 nM.

Regarding `C[C@]1(C(=O)O)CC[C@H](n2ncc(C(=O)N(CC(=O)c3c(Cl)cncc3Cl)[C@H]3CCC34CCC4)c2C(F)(F)F)CC1` [Example 748, trans-4-(4-((2-(3,5-dichloro-4-pyridinyl)-2-oxoethyl)((1S)-spiro[3.3]hept-1-yl)carbamoyl)-5-(trifluoromethyl)-1H-pyrazol-1-yl)-1-methylcyclohexanecarboxylic acid], the IC50 is 3.39 nM.

For `C[C@]1(C(=O)O)CC[C@H](n2ncc(C(=O)N(CC(=O)c3c(Cl)cncc3Cl)[C@@H]3CCC34CCC4)c2C(F)(F)F)CC1` [Example 749, trans-4-(4-((2-(3,5-dichloro-4-pyridinyl)-2-oxoethyl)((1R)-spiro[3.3]hept-1-yl)carbamoyl)-5-(trifluoromethyl)-1H-pyrazol-1-yl)-1-methylcyclohexanecarboxylic acid], the IC50 is 60.3 nM.

As to `Cc1cc(Cl)c(C(=O)CN(C(=O)c2cnn([C@H]3CC[C@H](CC(=O)O)CC3)c2C(F)(F)F)[C@H]2C[C@@H]3[C@H](C2)C3(C)C)c(Cl)c1` [Example 750, (trans-4-(4-((2-(2,6-dichloro-4-methylphenyl)-2-oxoethyl)((1R,3r,5S)-6,6-dimethylbicyclo[3.1.0]hex-3-yl)carbamoyl)-5-(trifluoromethyl)-1H-pyrazol-1-yl)cyclohexyl)acetic acid], the IC50 was 1.58 nM.

In the case of `Cc1cc(Cl)c(C(=O)CN(CC2(F)CCCC2)C(=O)c2cnn([C@H]3CC[C@](C)(C(=O)O)CC3)c2C(F)(F)F)c(Cl)n1` [Example 751, trans-4-(4-((2-(2,4-dichloro-6-methyl-3-pyridinyl)-2-oxoethyl)((1-fluorocyclopentyl)methyl)carbamoyl)-5-(trifluoromethyl)-1H-pyrazol-1-yl)-1-methylcyclohexanecarboxylic acid], the IC50 is 9.33 nM.

Take `CC(C)CCN(CC(=O)c1c(Cl)cccc1Cl)C(=O)c1cnn([C@H]2CC[C@](C)(C(=O)O)CC2)c1C(F)(F)F` [Example 752, trans-4-(4-((2-(2,6-dichlorophenyl)-2-oxoethyl)(3-methylbutyl)carbamoyl)-5-(trifluoromethyl)-1H-pyrazol-1-yl)-1-methylcyclohexanecarboxylic acid]: the IC50 was 4.79 nM.

As to `COc1ncc(Cl)c(C(=O)CN(CC(C)(C)C)C(=O)c2cnn([C@H]3CC[C@](C)(C(=O)O)CC3)c2C(F)(F)F)c1Cl` [Example 753, trans-4-(4-((2-(3,5-dichloro-2-methoxy-4-pyridinyl)-2-oxoethyl)(2,2-dimethylpropyl)carbamoyl)-5-(trifluoromethyl)-1H-pyrazol-1-yl)-1-methylcyclohexanecarboxylic acid], the IC50 is 25.1 nM.

With `O=C(O)C[C@H]1CC[C@H](n2ncc(C(=O)N(CC(=O)c3c(Cl)cncc3Cl)Cc3cc(F)cc(F)c3)c2C(F)(F)F)CC1` [Example 755, (trans-4-(4-((2-(3,5-dichloro-4-pyridinyl)-2-oxoethyl)(3,5-difluorobenzyl)carbamoyl)-5-(trifluoromethyl)-1H-pyrazol-1-yl)cyclohexyl)acetic acid], the IC50 was 2.34 nM.

As to `C[C@@H]1C[C@@H](n2ncc(C(=O)N(CC(=O)c3c(Cl)cncc3Cl)CC3CC(C)(C)C3)c2C(F)(F)F)CC[C@@H]1C(=O)O` [Example 756, (1S,2R,4S)-4-(4-((2-(3,5-dichloro-4-pyridinyl)-2-oxoethyl)((3,3-dimethylcyclobutyl)methyl)carbamoyl)-5-(trifluoromethyl)-1H-pyrazol-1-yl)-2-methylcyclohexanecarboxylic acid], the IC50 was 2.57 nM.

On to `Cc1cc(C)c(C(=O)CN(C(=O)c2cnn([C@H]3CC[C@](C)(C(=O)O)CC3)c2C(F)(F)F)[C@H]2C[C@@H]3[C@H](C2)C3(C)C)c(Cl)n1` [Example 757, trans-4-(4-((2-(2-chloro-4,6-dimethyl-3-pyridinyl)-2-oxoethyl)((1R,3r,5S)-6,6-dimethylbicyclo[3.1.0]hex-3-yl)carbamoyl)-5-(trifluoromethyl)-1H-pyrazol-1-yl)-1-methylcyclohexanecarboxylic acid], for which the IC50 was 7.94 nM.

`Cc1ncc(Cl)c(C(=O)CN(C(=O)c2cnn([C@H]3CC[C@](C)(C(=O)O)CC3)c2C(F)(F)F)[C@H]2C[C@@H]3[C@H](C2)C3(C)C)c1Cl` [Example 758, trans-4-(4-((2-(3,5-dichloro-2-methyl-3-pyridinyl)-2-oxoethyl)((1R,3r,5S)-6,6-dimethylbicyclo[3.1.0]hex-3-yl)carbamoyl)-5-(trifluoromethyl)-1H-pyrazol-1-yl)-1-methylcyclohexanecarboxylic acid]: the IC50 was 3.55 nM.

Consider `CC1(CN(CC(=O)c2c(Cl)cccc2Cl)C(=O)c2cnn([C@H]3CC[C@](C)(C(=O)O)CC3)c2C(F)(F)F)CC1` [Example 759, trans-4-(4-((2-(2,6-dichlorophenyl)-2-oxoethyl)((1-methylcyclopropyl)methyl)carbamoyl)-5-(trifluoromethyl)-1H-pyrazol-1-yl)-1-methylcyclohexanecarboxylic acid], for which the IC50 was 3.72 nM.

Source of the values: patent US9365522B2, “Pyrazole amide derivative” (AMGEN INC., priority 2015, dated 2016).
